# Test results: patent US20240122978A1, “RETROVIRAL VECTOR FOR UNIVERAL RECEPTOR THERAPY” (Umoja BioPharma, Inc., priority 2019, published 2024)
# “Also recorded” adds a separate entry of the source.
# Test system: CAR-expressing T cells
# Assay: Assessment of CAR expression and activation by flow cytometry
# Assay type: cell-based
# Conditions: FITC coated beads or plate bound FITC; FIGS. 2A-2F
# Method: Cells were transferred to individual wells of a 96-well V-bottom plate, the plate was spun at 400×g for 5 min, cells were washed with 200 μL PBS and spun again at 400×g for 5 min. Cells were incubated for 10 min at room temperature in 50 μL/well Zombie NIR Fixable Viability Dye (diluted 1:3000 in PBS). Cells were then washed with […] buffer (1×PBS+2% FBS) and the plate was spun at 400×g for 5 min. Next, 50 μL/well of surface stain in FACS buffer were added to the cells and incubated for 45 min at 4° C.
# Cells were washed with 150 μL FACS buffer and the plate was spun at 400×g for 5 min. Cells were then fixed with 100 μL/well of BD Cytofix/Cytoperm buffer for 20 min at 4° C. Cells were then washed with 100 μL BD Perm/Wash diluted 10-fold in water and the plate was spun at 400×g for 5 min. Cells were washed again with 200 μL BD Perm/Wash diluted 10-fold in water and the plate was spun again at 400×g for 5 min. 50 μL/well of intracellular stain in 1×BD Perm/Wash was added to the cells and incubated for 30 min at 4° C. Cells were washed with 150 μL, FACS buffer, the plate was spun at 400×g for 5 min and the cells were resuspended in 200 μL FACS buffer for analysis using a Beckman Coulter CytoFLEX S cytometer. As depicted in FIGS. 2A-2F, CAR-expressing T cells expand in the presence of the antigen FITC and this expansion is enhanced with rapamycin. […]
substance,measurement,value
fluorescein isothiocyanate [FITC],expansion/enrichment of CAR-expressing T cells in the presence of the antigen FITC,enriched; also recorded: enhanced expansion and activation; also recorded: expand
